These results are taken from patent publication US20240316055A1, “METHODS FOR TREATING LEIGH SYNDROME” (DBCC Research, LLC, priority 2023, published 2024).

Each structure is given as a SMILES string.

In experiment [1] the test system is ECHS1 patient-derived fibroblasts. Kind of experiment: Mitochondrial respiration assay (Seahorse). The format is cell-based. To be noted: 48 hours; for respiration: glucose or galactose conditions, 1, 5 or 10 μM. An excerpt: To assess the mechanism of action of hit compounds from the screens of previous Examples, which were based on rescue of viability after metabolic challenge, Seahorse assay was used to measure mitochondrial function in response to treatment at multiple concentrations. The Seahorse assay measures the following parameters: oxygen consumption; basal respiration rate; ATP-linked respiration; maximal respiration; reserve capacity; and ATP production rate. At baseline (no treatment), the ECHS1 patient-derived fibroblasts had lower respiration rates than the control fibroblasts in glucose culturing conditions (20% reduction) and in galactose culturing conditions (30% reduction).
ECHS1 patient-derived fibroblasts and age-matched and sex-matched control fibroblasts were initially grown in standard media (DMEM+2 mM glutamine+1 mM pyruvate) containing 10 mM glucose as the energy source. Cells were seeded into specialized 96-well plates at a density of 10,000 cells per well. One day after plating, cells were treated with the test compounds at the concentrations of 0, 1, 5, or 10 μM. Half of the samples were cultured in 10 mM glucose media in addition to the test compounds. The remaining half of the sample were cultured in 10 mM galactose media, which is a metabolic challenge, in addition to the test compound. Test compounds were incubated with cells for 48 hours. According to the standard Seahorse protocol, the following stressors were added to cells in sequential order: 2 μM oligomycin; 5 μM carbonyl cyanide-4-(trifluoromethoxy)phenylhydrazone (FCCP); 9 μM FCCP; 2 μM rotenone and 2 μM antimycin A. Data were normalized to cell number per well using a Hoechst stain for cell nuclei. Two rounds of experiments were conducted. The results were consistent between the two rounds.

The subject of experiment [2] is ECHS1 knockdown larvae. Nature of the experiment: Fly larva experiment: buoyancy (float/sink). To be noted: multiple doses fed to larvae; untreated ECHS1 knockdown larvae 30% sank. It is filed as in vivo, Drosophila. An excerpt:
To determine whether the Drosophila larvae experiment would be appropriate for further evaluation of compounds, the phenotype induced by ECHSI RNAi was identified. […] It was noted that when extracted from food and placed in 1X PBS, ECHS1 knockdown larvae were buoyant and sank only ˜30% of the time, while age-matched control larvae always sank at 100% frequency.
To test the ability of drug compounds to rescue these two ECHS1 knockdown phenotypes, the larvae were fed with fly food with various concentrations of 10 candidate drugs and first measured for larval size. During the 6 days prior to collection and phenotyping, larvae were raised in the drug food and exposed to drug continuously throughout development. […] Independently, losmapimod, talmapimod, ralimetinib, and neflamapimod were selected at multiple doses and fed to larvae and the population-wide float/sink proportions were assayed. In contrast to untreated ECHS1 knockdown larvae, where 30% sank, treatment with drug compounds nearly doubled the sinking proportions to 60%. Considering the effect of ECHSI on buoyancy in light of its enzymatic function catalyzing the second step of mitochondrial fatty acid beta-oxidation, decreased ECHS1 activity was expected to increase levels of non-metabolized lipid which would increase buoyancy. Thus, compounds were identified that suppressed both quantitative and nominal phenotypes, one of which appears to be directly relevant to the enzymatic function of ECHS1.

The subject of experiment [3] is ECHS1 Fibroblast cells. Nature of the experiment: Galactose potency screen (cell viability, DAPI nuclei count). The format is cell-based. To be noted: galactose potency screen, FIG. 2. The method, then: Galactose Screen: Compound library plates were obtained from Prestwick/Selleck and SPECS (7,591 compounds total, 27 compounds/plate/concentration at 1 μM and 10 μM, 384-well plates). ECHS1 Fibroblast cells were harvested at 95% confluent with trypsin and suspended in Dulbecco's Modified Eagle Medium (DMEM)+10% Fetal Bovine Serum (FBS). The suspension was centrifuged at 200x g for 5 min. The suspension was discarded and the pellet was resuspended in the 5.5 mM galactose medium (DMEM+10% FBS+5.5 mM galactose) and seeded at 750 cells/well (50 μL) into the compound wells (1 μM and 10 μM). For the positive control experiment, the cells were suspended in 5.5 mM galactose medium+5.5 mM glucose+0.01% DMSO and seeded at 750 cells/well (50 μL) into the blank wells. For the negative control experiment, the cells were suspended in the 5.5 mM galactose medium+0.01% DMSO and seeded at 750 cells/well (50 μL) into the blank wells. The seeded plates were incubated at 37° C. for 96 hours, then 15 μL/well of 16% paraformaldehyde solution was added to the plates and allowed to sit for 15 min to fix the cells. The plates were then washed 3x with 50 μL/well of phosphate-buffered saline (PBS). The cells were stained with […] of a solution of 4,6-diamidino-2-phenylindole dilactate (DAPI, Invitrogen) and left at room temperature for 1 hr. The plates were then washed 3x with 50 μL/well of PBS prior to imaging. Agilent BioTek EL406 Microplate Washer Dispenser was used for the cell fixation and staining protocol. The plates were imaged using GE InCell2200 Cell Analyzer using PerkinElmer Columbus software quantification protocol. The data was analyzed using Genedata, Vortex, and Abase software. A Z-score value of >2 was used for the Prestwick/Selleck compound library and >3 for the SPECS library (based on the negative control population) to determine hit selection.
ECHS1 Fibroblast cells were harvested at 70-80% confluent with trypsin and suspended in DMEM+10% FBS. The suspension was centrifuged at 200x g for 5 min. The suspension was discarded and the pellet was resuspended in the either the 5.5 mM galactose medium (DMEM+10% FBS+5.5 mM of galactose) or the 10 mM propionate medium (DMEM+10% FBS+10 mM sodium propionate). The cells were seeded at 750 cells/well (50 μL) into a 384-well plate containing the test compounds (3-fold serial dilution across 10 plates, starting at 10 uM). For the positive control experiment, the cells were suspended in either the 5.5 mM galactose medium or 10 mM propionate medium+5.5 mM glucose+0.01% DMSO and seeded at 750 cells/well (50 μL) into the blank wells. For the negative control experiment, the cells were suspended in the 5.5 mM galactose or 10 mM propionate medium +0.01% DMSO and seeded at 750 cells/well (50 μL) into the blank wells. The seeded plates were incubated at 37° C. for 96 hours, then 15 μL/well of 16% paraformaldehyde solution was added to the plates and allowed to sit for 15 min to fix the cells. The plates were then washed 3x with 50 μL/well of PBS. The cells were stained with 25 μL/well of a solution of DAPI and left at room temperature for 1 hr. The plates were then washed 3x with 50 μL/well of PBS prior to imaging. Agilent BioTek EL406 Microplate Washer Dispenser was used for the cell fixation and staining protocol. The plates were imaged using GE InCell2200 Cell Analyzer using PerkinElmer Columbus software quantification protocol. The data was analyzed using Genedata, Vortex, and Abase software. A Z-score value of >2 was used for both the Prestwick/Selleck and SPECS library (based on the negative control population) to determine hit selection.

Take `Cc1c(F)cc(C(=O)NC2CC2)cc1-c1ccc(C(=O)NCC(C)(C)C)cn1` [losmapimod, 6-[5-(cyclopropylcarbamoyl)-3-fluoro-2-methylphenyl]-N-(2,2-dimethylpropyl)pyridine-3-carboxamide]: the respiration result in experiment [1] is “did not result in major changes”. Further, in experiment [2], the sinking proportions was 60%.

Compound `O=c1ncn2nc(Sc3ccc(F)cc3F)ccc2c1-c1c(Cl)cccc1Cl` [neflamapimod, 5-(2,6-dichlorophenyl)-2-(2,4-difluorophenyl)sulfanylpyrimido[1,6-b]pyridazin-6-one] registered a sinking proportions in experiment [2] of 60%. Also, the concentration-dependent curves entry in experiment [3] is recorded as “non-linear response”.

In the case of `CC(C)(C)Cn1c(N)nc2ccc(-c3[nH]c(C(C)(C)C)nc3-c3ccc(F)cc3)nc21` [ralimetinib, 5-[2-tert-butyl-4-(4-fluorophenyl)-1H-imidazol-5-yl]-3-(2,2-dimethylpropyl)imidazo[4,5-b]pyridin-2-amine], the respiration result in experiment [1] is “did not result in major changes”. This compound showed a sinking proportions in experiment [2] of 60%. The concentration-dependent curves entry in experiment [3] is on record as “non-linear response”.

Consider `C[C@@H]1CN(Cc2ccc(F)cc2)[C@@H](C)CN1C(=O)c1cc2c(C(=O)C(=O)N(C)C)cn(C)c2cc1Cl` [talmapimod, 2-[6-chloro-5-[(2R,5S)-4-[(4-fluorophenyl)methyl]-2,5-dimethylpiperazine-1-carbonyl]-1-methylindol-3-yl]-N,N-dimethyl-2-oxoacetamide], for which the ATP production rates entry in experiment [1] was “no change”. Besides, in experiment [1] (glucose-treated cells, 10 μM), the “increase in maximal respiration” value was 11%. The maximal respiration entry in experiment [1] (glucose-treated cells) is on record as “dose-dependent increase”. The compound also showed a sinking proportions in experiment [2] of 60%. Further, in experiment [3], the concentration-dependent curves entry is recorded as “non-linear response”.
